Measurements reported in ChEMBL document CHEMBL3045999, “Synthesis, characterization and antimicrobial activity of 4-amino-1-alkyl pyridinium salts” (Med Chem Res, 2012).
Activity calls are given as the source filed them. No cut-off for these calls is given here.

Assays:
[1] = Cytotoxicity against Homo sapiens (human) erythrocytes assessed as hemolytic activity at 15.62 uM after 1 hr; assay type: cell-based, Erythrocyte; details: read-out: Activity
Escherichia coli [2] = assay: Antibacterial activity against Escherichia coli NCIM 2065 at 500 ug/disk after 24 hr by disk diffusion method; assay type: functional; details: NCIM 2065, 24 h, read-out: IZ
[3] = Cytotoxicity against Homo sapiens (human) erythrocytes assessed as hemolytic activity at 124.96 uM after 1 hr; assay type: cell-based, Erythrocyte; details: read-out: Activity
Nakaseomyces glabratus [4] = assay: Antifungal activity against Candida glabrata NCIM 3236 at 500 ug/disk after 24 hr by disk diffusion method; assay type: functional; details: NCIM 3236, 24 h, read-out: IZ
Staphylococcus aureus [5] = assay: Antibacterial activity against Staphylococcus aureus NCIM 5021 at 500 ug/disc after 24 hr by disk diffusion method; assay type: functional; details: NCIM 5021, 24 h, read-out: IZ
Candida albicans [6] = assay: Antifungal activity against Candida albicans NCIM 3074 at 500 ug/disk after 24 hr by disk diffusion method; assay type: functional; details: NCIM 3074, 24 h, read-out: IZ
Candida albicans [7] = assay: Inhibition of Candida albicans phospholipase at 124.96 uM after 30 min
Escherichia coli [8] = assay: Bacteriostatic activity against Escherichia coli NCIM 2065 at 500 ug/disk after 24 hr by disk diffusion method; assay type: functional, organism-based
Nakaseomyces glabratus [9] = assay: Fungistatic activity against Candida glabrata NCIM 3236 at 500 ug/disk after 24 hr by disk diffusion method; assay type: functional, organism-based
Staphylococcus aureus [10] = assay: Bacteriostatic activity against Staphylococcus aureus NCIM 5021 at 500 ug/disc after 24 hr by disk diffusion method; assay type: functional, organism-based
Candida albicans [11] = assay: Fungistatic activity against Candida albicans NCIM 3074 at 500 ug/disk after 24 hr by disk diffusion method; assay type: functional, organism-based
Candida albicans [12] = assay: Fungicidal activity against Candida albicans NCIM 3074 after 24 hr by NCCLS broth microdilution method; assay type: functional; details: NCIM 3074, 24 h
Candida albicans [13] = assay: Antifungal activity against Candida albicans NCIM 3074 assessed as inhibition of germ tube formation after 3 to 4 hr; assay type: functional
Candida albicans [14] = assay: Antifungal activity against Candida albicans NCIM 3074 after 24 hr by NCCLS broth microdilution method; assay type: functional; details: NCIM 3074, 24 h
Staphylococcus aureus [15] = assay: Antibacterial activity against Staphylococcus aureus NCIM 5021 after 24 hr by NCCLS broth microdilution method; assay type: functional; details: NCIM 5021, 24 h
Staphylococcus aureus [16] = assay: Bactericidal activity against Staphylococcus aureus NCIM 5021 after 24 hr by NCCLS broth microdilution method; assay type: functional; details: NCIM 5021, 24 h
Candida albicans [17] = assay: Fungistatic activity against Candida albicans NCIM 3074 at 25 ug/disk after 24 hr by disk diffusion method; assay type: functional, organism-based
Nakaseomyces glabratus [18] = assay: Fungistatic activity against Candida glabrata NCIM 3236 at 25 ug/disk after 24 hr by disk diffusion method; assay type: functional, organism-based
Staphylococcus aureus [19] = assay: Bacteriostatic activity against Staphylococcus aureus NCIM 5021 at 20 ug/disc after 24 hr by disk diffusion method; assay type: functional, organism-based
Escherichia coli [20] = assay: Bacteriostatic activity against Escherichia coli NCIM 2065 at 20 ug/disk after 24 hr by disk diffusion method; assay type: functional, organism-based

For CCCCCCCCCCn1ccc(=N)cc1, the hemolysis at 1 h, 15.62 µM [1] was 0.57%, the zone of inhibition at 500 µg/disc (Escherichia coli [2]) was 29 mm and the hemolysis at 1 h, 124.96 µM [3] was 97.4%. The zone of inhibition at 500 µg/disc (Nakaseomyces glabratus [4]) was 26 mm, the zone of inhibition at 500 µg/disc (Staphylococcus aureus [5]) was 28 mm and the zone of inhibition at 500 µg/disc (Candida albicans [6]) was 23.5 mm. The inhibition (Candida albicans [7]) was “Active”.
With CCC[n+]1ccc(N)cc1 the Activity (Escherichia coli [8]) was “Active”, the Activity (Nakaseomyces glabratus [9]) was “inactive” and the Activity (Staphylococcus aureus [10]) was “Active”. For the same molecule, the Activity (Candida albicans [11]) was “inactive”.
Work on CCCCCCC[n+]1ccc(N)cc1 yielded a zone of inhibition at 500 µg/disc (Escherichia coli [2]) of 26 mm, a zone of inhibition at 500 µg/disc (Nakaseomyces glabratus [4]) of 16 mm and a zone of inhibition at 500 µg/disc (Staphylococcus aureus [5]) of 25 mm. The zone of inhibition at 500 µg/disc (Candida albicans [6]) was 10.5 mm.
For CCCCCCCCCCCCCCCC[n+]1ccc(N)cc1.[Br-], the MFC (Candida albicans [12]) was 31.2 µM, the INH (Candida albicans [13]) was 15.62 µM and the MIC (Candida albicans [14]) was 15.6 µM. The zone of inhibition at 500 µg/disc (Escherichia coli [2]) was 34 mm, the zone of inhibition at 500 µg/disc (Nakaseomyces glabratus [4]) was 30 mm and the zone of inhibition at 500 µg/disc (Staphylococcus aureus [5]) was 36 mm. The MIC (Staphylococcus aureus [15]) was less than 15.6 µM, the MBC (Staphylococcus aureus [16]) was 15.6 µM and the zone of inhibition at 500 µg/disc (Candida albicans [6]) was 26.5 mm.
Molecule CCCCCCCCn1ccc(=N)cc1 has a zone of inhibition at 500 µg/disc (Escherichia coli [2]) of 27 mm, a zone of inhibition at 500 µg/disc (Nakaseomyces glabratus [4]) of 22 mm and a zone of inhibition at 500 µg/disc (Staphylococcus aureus [5]) of 25 mm. For the same molecule, the zone of inhibition at 500 µg/disc (Candida albicans [6]) was 14 mm.
CCCCCCn1ccc(=N)cc1 gave a zone of inhibition at 500 µg/disc (Escherichia coli [2]) of 18 mm, a zone of inhibition at 500 µg/disc (Nakaseomyces glabratus [4]) of 10 mm and a zone of inhibition at 500 µg/disc (Staphylococcus aureus [5]) of 21 mm. The Activity (Candida albicans [11]) was “Active”.
For CCCCC[n+]1ccc(N)cc1, the Activity (Nakaseomyces glabratus [9]) was “Active”, the zone of inhibition at 500 µg/disc (Escherichia coli [2]) was 16 mm and the zone of inhibition at 500 µg/disc (Staphylococcus aureus [5]) was 14 mm. The Activity (Candida albicans [11]) was “inactive”.
For CN[C@@H]1[C@H](O[C@H]2[C@H](O[C@H]3[C@H](O)[C@@H](O)[C@H](N=C(N)N)[C@@H](O)[C@@H]3N=C(N)N)O[C@@H](C)[C@]2(O)C=O)O[C@@H](CO)[C@H](O)[C@H]1O [STREPTOMYCIN], the Activity (Candida albicans [17]) was “inactive”, the zone of inhibition at 500 µg/disc (Escherichia coli [2]) was 32 mm and the zone of inhibition at 500 µg/disc (Staphylococcus aureus [5]) was 30 mm. The Activity (Nakaseomyces glabratus [18]) was “inactive”.
CCCCCCCCCCCCCC[n+]1ccc(N)cc1 gave a zone of inhibition at 500 µg/disc (Escherichia coli [2]) of 6.5 mm, a zone of inhibition at 500 µg/disc (Nakaseomyces glabratus [4]) of 8.5 mm and a zone of inhibition at 500 µg/disc (Staphylococcus aureus [5]) of 6 mm. It also gave a zone of inhibition at 500 µg/disc (Candida albicans [6]) of 9 mm.
For CCCC[n+]1ccc(N)cc1, the Activity (Escherichia coli [8]) was “Active”, the Activity (Nakaseomyces glabratus [9]) was “inactive” and the Activity (Staphylococcus aureus [10]) was “Active”. For the same molecule, the Activity (Candida albicans [11]) was “inactive”.
In the case of C[C@@H]1[C@H](O)[C@@H](C)/C=C/C=C/C=C/C=C/C=C/C=C/C=C/[C@H](O[C@@H]2O[C@H](C)[C@@H](O)[C@H](N)[C@@H]2O)C[C@@H]2O[C@](O)(C[C@@H](O)C[C@@H](O)[C@H](O)CC[C@@H](O)C[C@@H](O)CC(=O)O[C@H]1C)C[C@H](O)[C@H]2C(=O)O [AMPHOTERICIN B], the Activity (Staphylococcus aureus [19]) is reported as “inactive”, the zone of inhibition at 500 µg/disc (Nakaseomyces glabratus [4]) is reported as 14 mm and the Activity (Escherichia coli [20]) is reported as “inactive”. For the same molecule, the zone of inhibition at 500 µg/disc (Candida albicans [6]) was 10 mm.
In the case of CCn1ccc(=N)cc1, the Activity (Escherichia coli [8]) is reported as “inactive”, the Activity (Nakaseomyces glabratus [9]) is reported as “inactive” and the Activity (Staphylococcus aureus [10]) is reported as “inactive”. The Activity (Candida albicans [11]) was “inactive”.
